Results reported in patent publication US4215111A, “Peptides having ubiquitin-like activity” (Ortho Pharmaceutical Corporation, priority 1979, dated 1980).
Square brackets hold non-standard residues; d marks the D form. Peptide text beside a SMILES is read from it. Sar = CNCC(=O)O

Columns and labels:
[1] = test system: Thy-1+ T-lymphocytes and complement receptor (CR+) B-lymphocytes differentiation; assay: In vitro induction of Thy-1+ T cell and CR+ B cell differentiation from nu/nu mouse spleen precursor cells; assay type: cell-based, nu/nu mice (BALB/c background); conditions: for Active Concentration Range: induction of Thy-1+ T-lymphocytes and CR+ B-lymphocytes in vitro
Experimental: To determine the activity and characteristics of the peptide of Example I, determinations were carried out on healthy 5-6 week nu/nu mice of both sexes, the mice being bred on a BALB/c background (thymocytes expressing Thy-1.2 surface antigen) and maintained under conventional conditions. For the antisera, anti Thy-1.2 sera were prepared in Thy-1 congenic mice.
For the induction in vitro of Thy-1^+ T cells or CR^+ B cell differentiation, the induction of thymocyte differentiation from prothymocytes in vitro was performed as described by Komuro and Boyse, (Lancet, 1, 740, 1973), using the acquisition of Thy-1.2 as a marker of T cell differentiation. The induction of CR^+ B cell differentiation from CR^- B cell precursors in vitro was performed under similar conditions using as the assay criterion, the capacity of CR^+ B cells to bind sheep erythrocytes coated with subagglutinating quantities of rabbit antibody and nonlytic complement. Spleen cell populations from healthy nu/nu mice fractionated on discontinuous bovine serum albumin gradients were used as the source of both precursor types (Thy-1^- and CR^-) because they have few or no Thy-1^+ cells and low numbers of CR^+ cells.

[2] = reference application; cited from earlier work

With `NCCCC[C@H](NC(=O)[C@@H](N)CCC(N)=O)C(N)=O` [Example I, H-GLN-LYS-NH2] (H-Gln-Lys-NH2) the “potency relative to the thymopoietin pentapeptide” value [1] was “same potency as the thymopoietin pentapeptide” and the “ubiquitin-like biological activity (in words)” value ([1]; induction of Thy-1+ T and CR+ B lymphocyte differentiation) was “selectivity of actions similar to that of ubiquitin”.

In the case of `CNCC(=O)N[C@@H](CCC(N)=O)C(=O)N[C@@H](CCCCN)C(N)=O` [IV, H--SAR--GLN--LYS--NH2] (H-[Sar]-Gln-Lys-NH2), the “Active Concentration Range” value [1] is reported as 1 to 10 µg/mL.

For `CNCC(=O)N(C)CC(=O)N(C)CC(=O)N[C@@H](CCC(N)=O)C(=O)N[C@@H](CCCCN)C(N)=O` [VI, H--SAR--SAR--SAR--GLN--LYS--NH2] (H-[Sar][Sar][Sar]QK-NH2), the “potency relative to the thymopoietin pentapeptide” value [1] was “approximately 10 million”.

In the case of `CNCC(=O)N(C)CC(=O)N(C)CC(=O)N(C)CC(=O)N[C@@H](CCC(N)=O)C(=O)N[C@@H](CCCCN)C(N)=O` [VII, H--SAR--SAR--SAR--SAR--GLN--LYS--NH2] (H-[Sar][Sar][Sar][Sar]QK-NH2), the “Active Concentration Range” value [1] is reported as 1e-06 to 0.0001 µg/mL.

In the case of H-ALA-ASN-ILE-GLN-LYS-OH (H-ANIQK-OH), the “concentration at which activity is possessed” value [2] is listed as 0.1 µg/mL.

For H-TYR-ALA-ILE-GLN-LYS-OH (H-YAIQK-OH), the “concentration at which activity is possessed” value [2] is given as 0.1 µg/mL.

In the case of H-TYR-ASN-ALA-GLN-LYS-OH (H-YNAQK-OH), the “concentration at which activity is possessed” value [2] is listed as 0.1 µg/mL.
